From PMC7727793, “Aggregation Behavior, Antibacterial Activity and Biocompatibility of Catanionic Assemblies Based on Amino Acid-Derived Surfactants” (International Journal of Molecular Sciences, 2020)

Columns and labels:
[1] = test system: Escherichia coli ATCC 25922; experiment: Broth microdilution MIC; format: cell-based; details: 24 h, 37 °C, total surfactant concentration
erythrocytes = format: cell-based, rabbit
Experimental: The erythrocytes, taken from rabbit blood samples, were washed three times in PBS (pH 7.4) and resuspended in PBS at a cell density of 8 × 10^9 cells/mL. The hemolytic activity of the catanionic formulations used in this work was carried out using the procedure described by Pape et al. with minor modifications. A series of different volumes of a concentrated solution (1000 μM for the general case and 5000 μM for the 20:80 and cholesterol-containing formulations) of the catanionic formulation (10–80 μL) were placed in polystyrene tubes containing 25 μL of the prepared erythrocyte suspension and PBS buffer was added to each tube to a total volume of 1 mL. The resulted solutions were incubated at room temperature and shaken for 10 min and the tubes were then centrifuged (5 min at 10,000 rpm). The hemolysis (%) was calculated by comparing the absorbance (540 nm) of the supernatant of the solutions with that of Milli-Q water (control 100% hemolysis) and PBS buffer solution (control, 0% hemolysis).

[2] = format: physicochemical
Experimental: To check whether there was a pKa shift, we titrated the surfactant at a concentration below the CMC. The titration curve is shown in Supplementary Figure S1, where 10 mL of 1.5 mM surfactant was titrated with 3 mM NaOH.
The titration was followed using a glass electrode Orion coupled with an Orion Versastar reader (Thermo Scientific). […] 16% carbonation was determined. using Equation (1), which is derived making use of the charge and mass balances together with the acid constants of H2CO3, pK1CO2 = 6.35, pK2CO2 = 10.25 and water dissociation constant pKw = 14. (1) V = −V0Ca10^pKa−pH/1+10^pKa−pH−V0Ca+V0(1/10^pH−10^pH+pKw)/cb(1−α(1−1/1+10^pH+pK1CO2+10^2pH+pK2CO2))+(1/10^pH−10^pH+pKw) where V0 is the titrated solution initial volume, L is concentration, pKa is the searched acid constant, pkw is the minus logarithm of the water dissociation constant, Cb is the titrant concentration, α is the fraction of carbonated titrant, pK1CO2 is the first dissociation constant of CO2 and pK2CO2 is the second dissociation constant of CO2.

[3] = test system: Staphylococcus epidermidis ATCC 12228; experiment: Broth microdilution MIC; format: cell-based; details: 24 h, 37 °C, total surfactant concentration
Experimental: (§1) Antibacterial assays were conducted in vitro using the broth microdilution method. The minimum inhibitory concentration (MIC) is the smallest concentration of antibacterial agent at which bacterial growth is not observed. MIC values were determined for 4 Gram-positive bacteria (methicillin-resistant Staphylococcus aureus ATCC 43300 (MRSA), Bacillus subtilis ATCC 6633, Kocuria rhizophila 9341, Staphylococcus epidermidis ATCC 12228), 3 Gram-negative bacteria (Klebsiella pneumoniae ATCC 4532, Pseudomonas aeruginosa ATCC 27853, Escherichia coli ATCC 8739) and the fungal strain, Candida albicans ATCC 10231. Frozen stocks of bacteria were incubated on Muller Hinton agar plates for 24 h at 37 °C. From this culture, a bacterial suspension of 1 × 10^6 colony forming units CFU/mL was prepared in MHB (pH = 7.3). Two dilutions of pure surfactants and their binary mixtures were prepared in MH broth to obtain a final concentration ranging from 4 to 454 μM in the microtiter plates.
(§2) Then, 10 μL of nutrient broth culture of each microorganism was added to achieve a final density of ca. 5 × 10^5 CFU/mL. The cultures were incubated for 24 h at 37 °C. Every assay was repeated three times.

[4] = test system: Pseudomonas aeruginosa ATCC 27853; experiment: Broth microdilution MIC; format: cell-based; details: 24 h, 37 °C, total surfactant concentration
Experimental: as §1, §2

[5] = test system: Kocuria rhizophila ATCC 9341; experiment: Broth microdilution MIC; format: cell-based; details: 24 h, 37 °C, total surfactant concentration
Experimental: as §1, §2

[6] = test system: Candida albicans ATCC 10231; experiment: Broth microdilution MIC; format: cell-based; details: 24 h, 37 °C, total surfactant concentration
Experimental: as §1, §2

[7] = test system: Bacillus subtilis ATCC 6633; experiment: Broth microdilution MIC; format: cell-based; details: 24 h, 37 °C, total surfactant concentration
Experimental: as §1, §2

[8] = test system: Klebsiella pneumoniae ATCC 13883; experiment: Broth microdilution MIC; format: cell-based; details: 24 h, 37 °C, total surfactant concentration
[9] = SAXS, core-shell model fit; format: physicochemical
Experimental: SAXS was measured at the Non-Crystalline Diffraction beamline at ALBA Synchrotron NCD-SWEET, Barcelona. A sample-detector distance of 2.433 m was used with 0.10 nm wavelength coupled with a Q315r detector from ADSC. The q scale was calibrated with a silver behenate sample, and data reduction was performed with the software provided by the beamline. The intensity is shown as a function of scattering vector q expressed in nm^−1. q = (4π/λ) sin(θ/2), where θ is the scattering angle and λ is the wavelength of radiation. The spectra have been fitted to lamellar models based on Gaussian description of the bilayer electronic profile for the vesicles, as described in Haba et al.. We have kept the bilayer hydrophobic profile constant along all the samples to avoid overfitting. In these conditions, the estimated error in the position of the headgroups is 2% and 5% for the width of the Gaussian. The pure histidine derivative DMHNHC14 has been fitted to a core-shell model as described in Reference. SAXS of the pure DMHNHC14 compound was measured using an in-house instrument S3-MICRO (Hecus X-ray systems GMBH, Graz, Austria) coupled to a GENIX-Fox three-dimensional (3D) X-ray source (Xenox, Grenoble, France), as described in Reference and performing the same procedures as detailed therein.

In the case of “N(π),N(τ)-bis(methyl)-L-Histidine tetradecyl amide [DMHNHC14]”, the MIC [1] is reported as 113 µM, the Hemolytic activity (erythrocytes) is reported as “increases with the dose” and the pKa [2] is reported as 5.7-5.9. The “pKa calculated from the concentration and the initial solution pH” value [2] was 5.4, the “pKa shift versus literature value for the histidine secondary amine” value [2] was “about 3.3 units” and the MIC [3] was 14 µM. It also gave an MIC [4] of 227 µM, an MIC [5] of 28 µM and an MIC [6] of 28 µM. The MIC [7] was 28 µM, the MIC [8] was 113 µM and the Aggregation number ([9]; from SAXS core-shell fit) was 64. The “Area per molecule (SAXS)” value ([9]; from SAXS core-shell fit) was 0.66 nm^2, the “Hydration degree per polar head” value ([9]; from hydrophilic shell volume and electronic density) was “about 17 water molecules” and the “Hydrophilic corona thickness (core-shell model)” value ([9]; micelles of pure surfactant) was 0.88 nm. For the same substance, the “Hydrophobic radius (core-shell model)” value ([9]; micelles of pure surfactant) was 1.84 nm.
